How the values were obtained:
HIV-IIIb = assay: Test A: Antiviral assay in MT4 Cells; type: cell-based, HIV-1; details: Human immunodeficiency virus 1, 120 h; 2 μM drug concentration; MT4 cells infected with HIV-IIIb, 5 days; calculated from dose response curve; values normalized to 100% where greater than 100; read-out: % Inhibition at 2 μM (percent inhibition of virus-induced cell killing)
Description: (§1) For the antiviral assay, 40 μL of a concentration required to achieve a final effective 1× test concentration of 3-fold serially diluted compound in culture medium with 10% FBS was added to each well of a 384-well plate (10 concentrations) in quadruplicate. MT4 cells were next mixed with HIV-IIIb at an m.o.i of 0.003 for 1 hour, after which time 35 μL of virus/cell mixture (2000 cells) was immediately added to each well containing 40 μL of diluted compound. The plates were then incubated at 37° C. for 5 days. After 5 days of incubation, 25 μl of 2× concentrated CellTiter-Glo™ Reagent (catalog # G7571, Promega Biosciences, Inc., Madison, Wis.) was added to each well containing MT-4 cells. Cell lysis was carried out by incubating at room temperature for 10 min and then chemiluminescence was read. EC50 values were calculated as the compound concentration that caused a 50% decrease in luminescence signal, a measure of HIV-1 replication. Percent inhibition of virus-induced cell killing calculated from the dose response curve at 2 μM drug concentration is shown in the table below.

[1] = Test B: Cytotoxicity Assay; type: cell-based; details: human, uninfected MT4 cells, same protocol as Test A
Description: as §1, with “below. Compound cytotoxicity and the corresponding CC50 values was determined using the same protocol as described in the antiviral assay (Test A) except that uninfected cells were used.” for “below.”

## CN(C(=O)[C@H](Cc1cccc([N+](=O)[O-])c1)NC(=O)Cn1nc(C(F)(F)F)c2c1CCCC2)c1ccccc1 [Compound 17, (S)—N-methyl-3-(3-nitrophenyl)-N-phenyl-2-(2-(3-(trifluoromethyl)-4,5,6,7-tetrahydro-1H-indazol-1-yl)acetamido)propanamide]
HIV-IIIb
  inhibition at 2 µM: 0%
[1]
  CC50 at 5 days: 19.2 µM

## CN(C(=O)[C@H](Cc1cccc(C#N)c1)NC(=O)Cn1nc(C(F)(F)F)c2c1CCCC2)c1ccccc1 [Compound 15, (S)-3-(3-cyanophenyl)-N-methyl-N-phenyl-2-(2-(3-(trifluoromethyl)-4,5,6,7-tetrahydro-1H-indazol-1-yl)acetamido)propanamide]
HIV-IIIb
  inhibition at 2 µM: 26%
[1]
  CC50 at 5 days: 26.3 µM

## CN(C)c1ccc(N(C)C(=O)[C@H](Cc2ccccc2)NC(=O)Cn2nc(C(F)(F)F)c3c2CCCC3)cc1 [Compound 23, (S)—N-(4-(dimethylamino)phenyl)-N-methyl-3-phenyl-2-(2(3-(trifluoromethyl)-4,5,6,7-tetrahydro-1H-indazol-1-yl)acetamido)propanamide]
HIV-IIIb
  inhibition at 2 µM: 100%
[1]
  CC50 at 5 days: 19.2 µM

## CN(C(=O)[C@H](Cc1cccc(Cl)c1)NC(=O)Cn1nc(C(F)(F)F)c2c1CCCC2)c1ccccc1 [Compound 16, (S)-3-(3-chlorophenyl)-N-methyl-N-phenyl-2-(2-(3-(trifluoromethyl)-4,5,6,7-tetrahydro-1H-indazol-1-yl)acetamido)propanamide]
HIV-IIIb
  inhibition at 2 µM: 58%
[1]
  CC50 at 5 days: 16.7 µM

## CN(C(=O)[C@H](Cc1cc(F)cc(F)c1)NC(=O)Cn1nc(C(F)(F)F)c2c1C(F)(F)C1CC21)c1ccc2c(c1)CNC2=O (stereo partly drawn) [Compound 34, (2S)-2-(2-(5,5-difluoro-3-(trifluoromethyl)-3b,4,4a,5-tetrahydro-1H-cyclopropa[3,4]cyclopenta[1,2-c]pyrazol-1-yl)acetamido)-3-(3,5-difluorophenyl)-N-methyl-N-(1-oxoisoindolin-5-yl)propanamide]
HIV-IIIb
  inhibition at 2 µM: 97%
[1]
  CC50 at 5 days: > 53 µM

## COc1ccc(N(C)C(=O)[C@H](Cc2cc(F)cc(F)c2)NC(=O)Cn2nc(C(F)(F)F)c3c2CCCC3)cc1 [Compound 4, (S)-3-(3,5-difluorophenyl)-N-(4-methoxyphenyl)-N-methyl-2-(2-(3-(trifluoromethyl)-4,5,6,7-tetrahydro-1H-indazol-1-yl)acetamido)propanamide]
HIV-IIIb
  inhibition at 2 µM: 100%
[1]
  CC50 at 5 days: 12.5 µM

## CN(C(=O)[C@H](Cc1ccncc1)NC(=O)Cn1nc(C(F)(F)F)c2c1CCCC2)c1ccccc1 [Compound 5]
HIV-IIIb
  inhibition at 2 µM: 0%
[1]
  CC50 at 5 days: > 53 µM

## CN(C(=O)[C@H](CC1CCOCC1)NC(=O)Cn1nc(C(F)(F)F)c2c1CCCC2)c1ccccc1 [Compound 20, (S)—N-methyl-N-phenyl-3-(tetrahydro-2H-pyran-4-yl)-2-(2-(3-(trifluoromethyl)-4,5,6,7-tetrahydro-1H-indazol-1-yl)acetamido)propanamdide]
HIV-IIIb
  inhibition at 2 µM: 0%
[1]
  CC50 at 5 days: > 53 µM

## CN(C(=O)[C@H](Cc1cc(F)cc(F)c1)NC(=O)Cn1nc(C(F)(F)F)c2c1CCCC2)c1ccc(F)cc1 [Compound 24, (S)-3-(3,5-difluorophenyl)-N-(4-fluorophenyl)-N-methyl-2-(2-(3-(trifluoromethyl)-4,5,6,7-tetrahydro-1H-indazol-1-yl)acetamido)propanamide]
HIV-IIIb
  inhibition at 2 µM: 93%
[1]
  CC50 at 5 days: 12.2 µM

## COc1ccc(N(C)C(=O)[C@H](Cc2cc(F)cc(F)c2)NC(=O)Cn2nc(C(F)(F)F)c3c2CCC2(C3)OCCO2)cc1 [Compound 27]
HIV-IIIb
  inhibition at 2 µM: 32%
[1]
  CC50 at 5 days: 19.9 µM

## CN(C(=O)[C@H](Cc1cccs1)NC(=O)Cn1nc(C(F)(F)F)c2c1CCCC2)c1ccccc1 [Compound 8]
HIV-IIIb
  inhibition at 2 µM: 95%
[1]
  CC50 at 5 days: 25.6 µM
